Experimental data from patent US20050245399A1, “Pyrazole derivatives as herbicidal compositions containing them” (ISHIHARA SANGYO KAISHA, LTD., priority 2004, published 2005).

Assays:
Assay type in all cases: in vivo
[1] = system: velvetleaf (Abutilon theophrasti): ABUTH; assay: Test Example 1 pre-emergence herbicidal activity, ABUTH; details: visually observed 20th to 23rd day after application
Description: (§1) Upland field soil was put into a 1/170,000 ha pot, and seeds of various plants {1. barnyardgrass (Echinochloa crus-galli L.): ECHCG, 2. crabgrass (Digitaria sanguinalis L.): DIGSA, 3. green foxtail (Setaria viridis L.): SETVI, 4. redroot pigweed (Amaranthus retroflexus L.): AMARE, 5. prickly sida (Sida spinosa L.): SEDSP, 6. velvetleaf (Abutilon theophrasti): ABUTH, 7. common cocklebur (Xanthium strumarium L.): XANST, 8. rice (Oryza sativa L.): ORYSA, 9. wheat (Triticum aestivum L.): TRZAX, 10. corn (Zea mays L.): ZEAMX, 11. soybean (Glycine max Merr.): GLXMA} were sown. Then, one day after the sowing, a wettable powder or emulsifiable concentrate having the compound of the present invention formulated in accordance with a usual formulation method, was weighed so that the active ingredient would be a predetermined amount and diluted with water in an amount of 500 L/ha. The herbicide adjusted was applied by a small size sprayer for preemergence treatment. On the 20th to 23rd day after the application of the herbicide, the growth of the respective plants was visually observed, and the herbicidal effects were evaluated by growth controlling degrees (%) ranging from 0 (equivalent to the untreated control) to 100 (complete kill), whereby the results shown in Table 4, were obtained. Compound Nos. in Table 4 correspond to Compound Nos. in Table 1 and 2 given hereinbefore.

[2] = system: wheat (Triticum aestivum L.): TRZAX; assay: Test Example 1 pre-emergence herbicidal activity, TRZAX; details: visually observed 20th to 23rd day after application
Description: as §1

[3] = system: redroot pigweed (Amaranthus retroflexus L.): AMARE; assay: Test Example 1 pre-emergence herbicidal activity, AMARE; details: visually observed 20th to 23rd day after application
Description: as §1

[4] = system: crabgrass (Digitaria sanguinalis L.): DIGSA; assay: Test Example 1 pre-emergence herbicidal activity, DIGSA; details: visually observed 20th to 23rd day after application
Description: as §1

[5] = system: green foxtail (Setaria viridis L.): SETVI; assay: Test Example 1 pre-emergence herbicidal activity, SETVI; details: visually observed 20th to 23rd day after application
Description: as §1

[6] = system: corn (Zea mays L.): ZEAMX; assay: Test Example 1 pre-emergence herbicidal activity, ZEAMX; details: visually observed 20th to 23rd day after application
Description: as §1

[7] = system: prickly sida (Sida spinosa L.): SEDSP; assay: Test Example 1 pre-emergence herbicidal activity, SIDSP; details: visually observed 20th to 23rd day after application
Description: as §1

[8] = system: soybean (Glycine max Merr.): GLXMA; assay: Test Example 1 pre-emergence herbicidal activity, GLXMA; details: visually observed 20th to 23rd day after application
Description: as §1

[9] = system: rice (Oryza sativa L.): ORYSA; assay: Test Example 1 pre-emergence herbicidal activity, ORYSA; details: visually observed 20th to 23rd day after application
Description: as §1

[10] = system: barnyardgrass (Echinochloa crus-galli L.): ECHCG; assay: Test Example 1 pre-emergence herbicidal activity, ECHCG; details: visually observed 20th to 23rd day after application
Description: as §1

[11] = system: wheat (Triticum aestivum L.), TRZAX; assay: Test Example 2 post-emergence (foliage treatment) herbicidal activity, TRZAX; details: 63 g a.i./ha
Description: (§2) Upland field soil was put into a 1/170,000 ha pot, and seeds of various plants were sown. Then, when the plants reached predetermined leaf stages {1. barnyardgrass (Echinochloa crus-galli L.), ECHCG: 1.1-2.1 leaf stage, 2. crabgrass (Digitaria sanguinalis L.), DIGSA: 1.0-2.0 leaf stage, 3. green foxtail (Setaria viridis L.), SETVI: 1.0-2.2 leaf stage, 4. redroot pigweed (Amaranthus retroflexus L.), AMARE: 0.1-1.5 leaf stage, 5. prickly sida (Sida spinosa L.), SIDSP: 0.1-0.6 leaf stage, 6. velvetleaf (Abutilon theophrasti), ABUTH: 0.1-0.6 leaf stage, 7. common cocklebur (Xanthium strumarium L.), XANST: 0.1 leaf stage, 8. rice (Oryza sativa L.), ORYSA; 1.0-2 leaf stage, 9. wheat (Triticum aestivum L.), TRZAX: 2.3-3.5 leaf stage, 10. corn (Zea mays L.), ZEAMXN 2.1-2.6 leaf stage, 11. soybean (Glycine max Merr.), GLXMA: primary leaf stage}, a wettable powder or emulsifiable concentrate having the compound of the present invention formulated in accordance with a usual formulation method, was weighed so that the active ingredient would be a predetermined amount, and diluted with water in an amount of 500 L/ha. To the diluted solution, 0.1% (v/v) of an agricultural spreader was added. The herbicide adjusted was applied by a small size sprayer for foliage treatment. On the 20th to 23rd day after the application of the herbicide, the growth of the respective plants was visually observed, and the herbicidal effects were evaluated by growth controlling degrees (%) ranging from 0 (equivalent to the untreated control) to 100 (complete kill), whereby the results shown in Table 5, were obtained. Compound Nos. in Table 5 correspond to Compound Nos. in Table 1 and 2 given hereinbefore.

[12] = system: velvetleaf (Abutilon theophrasti), ABUTH; assay: Test Example 2 post-emergence (foliage treatment) herbicidal activity, ABUTH; details: 63 g a.i./ha
Description: as §2

[13] = system: barnyardgrass (Echinochloa crus-galli L.), ECHCG; assay: Test Example 2 post-emergence (foliage treatment) herbicidal activity, ECHCG; details: 63 g a.i./ha
Description: as §2

[14] = system: rice (Oryza sativa L.), ORYSA; assay: Test Example 2 post-emergence (foliage treatment) herbicidal activity, ORYSA; details: 63 g a.i./ha
Description: as §2

[15] = system: green foxtail (Setaria viridis L.), SETVI; assay: Test Example 2 post-emergence (foliage treatment) herbicidal activity, SETVI; details: 63 g a.i./ha
Description: as §2

[16] = system: corn (Zea mays L.), ZEAMX; assay: Test Example 2 post-emergence (foliage treatment) herbicidal activity, ZEAMX; details: 63 g a.i./ha
Description: as §2

[17] = system: crabgrass (Digitaria sanguinalis L.), DIGSA; assay: Test Example 2 post-emergence (foliage treatment) herbicidal activity, DIGSA; details: 63 g a.i./ha
Description: as §2

[18] = system: prickly sida (Sida spinosa L.), SIDSP; assay: Test Example 2 post-emergence (foliage treatment) herbicidal activity, SIDSP; details: 63 g a.i./ha
Description: as §2

[19] = system: soybean (Glycine max Merr.), GLXMA; assay: Test Example 2 post-emergence (foliage treatment) herbicidal activity, GLXMA; details: 63 g a.i./ha
Description: as §2

Structure (SMILES) | Pre-emergence Herbicidal Activity ABUTH (growth controlling degree) ([1]; Rate 63 g a.i./ha) [%] | Pre-emergence Herbicidal Activity TRZAX (growth controlling degree) ([2]; Rate 63 g a.i./ha) [%] | Pre-emergence Herbicidal Activity AMARE (growth controlling degree) ([3]; Rate 63 g a.i./ha) [%] | Pre-emergence Herbicidal Activity DIGSP (growth controlling degree) ([4]; Rate 63 g a.i./ha) [%] | Pre-emergence Herbicidal Activity SETVI (growth controlling degree) ([5]; Rate 63 g a.i./ha) [%] | Pre-emergence Herbicidal Activity ZEAMX (growth controlling degree) ([6]; Rate 63 g a.i./ha) [%] | Pre-emergence Herbicidal Activity SIDSP (growth controlling degree) ([7]; Rate 63 g a.i./ha) [%] | Pre-emergence Herbicidal Activity GLXMA (growth controlling degree) ([8]; Rate 63 g a.i./ha) [%] | Pre-emergence Herbicidal Activity ORYSA (growth controlling degree) ([9]; Rate 63 g a.i./ha) [%] | Pre-emergence Herbicidal Activity ECHCG (growth controlling degree) ([10]; Rate 63 g a.i./ha) [%] | growth controlling degree, TRZAX [11] [%] | growth controlling degree, ABUTH [12] [%] | growth controlling degree, ECHCO [13] [%] | growth controlling degree, ORYSA [14] [%] | growth controlling degree, SETVI [15] [%] | growth controlling degree, ZEAMX [16] [%] | growth controlling degree, DIGSP [17] [%] | growth controlling degree, SIDSP [18] [%] | growth controlling degree, GLXMA [19] [%] | also measured
COc1c(Cl)cc(F)c(-c2nn(C)c(OC(F)F)c2Cl)c1NC(=O)CCc1cccc(F)c1 [Compound 1-266] | 50 | 40 | 100 | 100 | 80 | 0 | 100 | 0 | 10 | 60 |  |  |  |  |  |  |  |  |  | 
COc1c(Cl)cc(F)c(-c2nn(C)c(OC(F)F)c2Cl)c1NC(=O)C(C)Cc1ccccc1 (stereo not shown) [Compound 1-268] | 80 | 20 | 100 | 100 | 80 | 0 | 70 | 0 | 30 | 40 |  |  |  |  |  |  |  |  |  | 
COc1c(Cl)cc(F)c(-c2nn(C)c(OC(F)F)c2Cl)c1NC(=O)c1ccc2ccccc2c1 [Compound 1-271] |  |  |  |  |  |  |  |  |  |  |  |  |  |  |  |  |  |  |  | Pre-emergence Herbicidal Activity ABUTH (growth controlling degree) ([1]; Rate 125 g a.i./ha): 40%; Pre-emergence Herbicidal Activity TRZAX (growth controlling degree) ([2]; Rate 125 g a.i./ha): 10%; Pre-emergence Herbicidal Activity AMARE (growth controlling degree) ([3]; Rate 125 g a.i./ha): 100%; Pre-emergence Herbicidal Activity DIGSP (growth controlling degree) ([4]; Rate 125 g a.i./ha): 100%; Pre-emergence Herbicidal Activity SETVI (growth controlling degree) ([5]; Rate 125 g a.i./ha): 90%; Pre-emergence Herbicidal Activity ZEAMX (growth controlling degree) ([6]; Rate 125 g a.i./ha): 20%; Pre-emergence Herbicidal Activity SIDSP (growth controlling degree) ([7]; Rate 125 g a.i./ha): 100%; Pre-emergence Herbicidal Activity GLXMA (growth controlling degree) ([8]; Rate 125 g a.i./ha): 20%; Pre-emergence Herbicidal Activity ORYSA (growth controlling degree) ([9]; Rate 125 g a.i./ha): 60%; Pre-emergence Herbicidal Activity ECHCG (growth controlling degree) ([10]; Rate 125 g a.i./ha): 70%
COc1c(Cl)cc(F)c(-c2nn(C)c(OC(F)F)c2Cl)c1NC(=O)C(C)c1ccccc1 (stereo not shown) [Compound 1-41] |  |  |  |  |  |  |  |  |  |  | 30 | 100 | 20 | 30 | 40 | 0 | 30 | 100 | 40 | Pre-emergence Herbicidal Activity ABUTH (growth controlling degree) ([1]; Rate 10 g a.i./ha): 0%; Pre-emergence Herbicidal Activity TRZAX (growth controlling degree) ([2]; Rate 10 g a.i./ha): 0%; Pre-emergence Herbicidal Activity AMARE (growth controlling degree) ([3]; Rate 10 g a.i./ha): 50%; Pre-emergence Herbicidal Activity DIGSP (growth controlling degree) ([4]; Rate 10 g a.i./ha): 50%; Pre-emergence Herbicidal Activity SETVI (growth controlling degree) ([5]; Rate 10 g a.i./ha): 100%; Pre-emergence Herbicidal Activity ZEAMX (growth controlling degree) ([6]; Rate 10 g a.i./ha): 0%; Pre-emergence Herbicidal Activity SIDSP (growth controlling degree) ([7]; Rate 10 g a.i./ha): 40%; Pre-emergence Herbicidal Activity GLXMA (growth controlling degree) ([8]; Rate 10 g a.i./ha): 0%; Pre-emergence Herbicidal Activity ORYSA (growth controlling degree) ([9]; Rate 10 g a.i./ha): 0%; Pre-emergence Herbicidal Activity ECHCG (growth controlling degree) ([10]; Rate 10 g a.i./ha): 30%
COc1c(Cl)cc(F)c(-c2nn(C)c(OC(F)F)c2Cl)c1NC(=O)CCc1ccc(F)cc1 [Compound 1-267] | 100 | 20 | 100 | 100 | 95 | 0 | 80 | 0 | 30 | 70 |  |  |  |  |  |  |  |  |  | 
COc1c(Cl)cc(F)c(-c2nn(C)c(OC(F)F)c2Cl)c1NC(=O)C=Cc1ccc(F)cc1 [Compound 1-258] | 70 | 0 | 100 | 70 | 30 | 0 | 70 | 0 | 40 | 10 | 10 | 100 | 60 | 40 | 60 | 10 | 40 | 100 | 20 | 
COc1c(Cl)cc(F)c(-c2nn(C)c(OC(F)F)c2Cl)c1NCCOc1ccccc1 [Compound 1-77] | 0 | 0 |  | 0 | 10 | 0 | 0 | 0 | 0 | 0 | 30 | 100 | 70 | 40 | 95 | 60 | 60 | 100 | 60 | 
COc1c(Cl)cc(F)c(-c2nn(C)c(OC(F)F)c2Cl)c1NC(=O)CCc1ccccc1F [Compound 1-269] | 80 | 40 | 100 | 100 | 100 | 10 | 100 | 0 | 40 | 80 |  |  |  |  |  |  |  |  |  | 
